Legend:
[1] = test system: patients suffering from erosive and/or ulcerative type reflux esophagitis; assay: Open-labeled studies in reflux esophagitis: endoscopic improvement rating; type: in vivo, human
Procedure: (§1) Two open-labeled studies have been conducted in order to evaluate the efficacy and safety of tenatoprazole for gastroesophageal reflux disease. 22 patients in the first study and 24 patients in the second study, of more than 20 years of age, suffering from erosive and/or ulcerative type reflux esophagitis (diagnosed by endoscopy), received tablets containing enteric-coated granules with 10 mg of tenatoprazole.
The tablets were administered orally once a day after breakfast, for a treatment period of 8 weeks, which was continued up to 12 weeks in some cases. Healing was controlled by endoscopic examination 4 weeks and 8 weeks after the first administration, or at the withdrawal from the study, the disease stages were evaluated according to the Savary and Miller classification and the treatment was stopped when healing was confirmed. The condition was evaluated as healed when disappearance of erosion was confirmed.

[2] = test system: patients suffering from erosive and/or ulcerative type reflux esophagitis; assay: Open-labeled studies in reflux esophagitis: improvement rating of subjective and objective symptoms; type: in vivo, human; conditions: 10 mg tablet orally once a day
Procedure: as §1
[…] […], or at the withdrawal from the study, the disease stages were evaluated according to the Savary and Miller classification and the treatment was stopped when healing was confirmed. The condition was evaluated as healed when disappearance of erosion was confirmed.

[3] = 1st study, 4 weeks, 10 mg tablet orally once a day
[4] = 1st study, 8 weeks, 10 mg tablet orally once a day
[5] = 1st study, final, 10 mg tablet orally once a day
[6] = 2nd study, 4 weeks, 10 mg tablet orally once a day
[7] = 2nd study, 8 weeks, 10 mg tablet orally once a day
[8] = 2nd study, 12 weeks, 10 mg tablet orally once a day
[9] = 2nd study, final, 10 mg tablet orally once a day

COc1ccc2[nH]c([S+]([O-])Cc3ncc(C)c(OC)c3C)nc2n1 (centres unmarked) [tenatoprazole, 5-methoxy-2-[[(4-methoxy-3,5-dimethyl-2-pyridyl)methyl]sulfinyl]imidazo[4,5-b]pyridine]
0: Endoscopic improvement rating, patients rated C moderately decreased [1, 3] | Endoscopic improvement rating, patients rated D slightly decreased [1, 3] | Endoscopic improvement rating, patients rated F aggravated [1, 3] | Endoscopic improvement rating, patients rated B markedly decreased [1, 4] | Endoscopic improvement rating, patients rated C moderately decreased [1, 4] | Endoscopic improvement rating, patients rated D slightly decreased [1, 4] | Endoscopic improvement rating, patients rated F aggravated [1, 4] | Endoscopic improvement rating, patients rated B markedly decreased [1, 5] | Endoscopic improvement rating, patients rated C moderately decreased [1, 5] | Endoscopic improvement rating, patients rated D slightly decreased [1, 5] | Endoscopic improvement rating, patients rated F aggravated [1, 5] | Endoscopic improvement rating, patients rated C moderately decreased [1, 6] | Endoscopic improvement rating, patients rated D slightly decreased [1, 6] | Endoscopic improvement rating, patients rated E not changed [1, 6] | Endoscopic improvement rating, patients rated F aggravated [1, 6] | Endoscopic improvement rating, patients rated B markedly decreased [1, 7] | Endoscopic improvement rating, patients rated C moderately decreased [1, 7] | Endoscopic improvement rating, patients rated D slightly decreased [1, 7] | Endoscopic improvement rating, patients rated E not changed [1, 7] | Endoscopic improvement rating, patients rated F aggravated [1, 7] | Endoscopic improvement rating, patients rated B markedly decreased [1, 8] | Endoscopic improvement rating, patients rated C moderately decreased [1, 8] | Endoscopic improvement rating, patients rated D slightly decreased [1, 8] | Endoscopic improvement rating, patients rated E not changed [1, 8] | Endoscopic improvement rating, patients rated F aggravated [1, 8] | Endoscopic improvement rating, patients rated B markedly decreased [1, 9] | Endoscopic improvement rating, patients rated C moderately decreased [1, 9] | Endoscopic improvement rating, patients rated D slightly decreased [1, 9] | Endoscopic improvement rating, patients rated E not changed [1, 9] | Endoscopic improvement rating, patients rated F aggravated [1, 9] | Improvement rating of symptoms, patients rated C slightly improved ([2]; 1st study, 1 week) | Improvement rating of symptoms, patients rated E aggravated ([2]; 1st study, 1 week) | Improvement rating of symptoms, patients rated C slightly improved ([2]; 1st study, 2 weeks) | Improvement rating of symptoms, patients rated E aggravated ([2]; 1st study, 2 weeks) | Improvement rating of symptoms, patients rated B moderately improved ([2]; 1st study, 4 weeks) | Improvement rating of symptoms, patients rated D not changed ([2]; 1st study, 4 weeks) | Improvement rating of symptoms, patients rated E aggravated ([2]; 1st study, 4 weeks) | Improvement rating of symptoms, patients rated B moderately improved ([2]; 1st study, 6 weeks) | Improvement rating of symptoms, patients rated D not changed ([2]; 1st study, 6 weeks) | Improvement rating of symptoms, patients rated E aggravated ([2]; 1st study, 6 weeks) | Improvement rating of symptoms, patients rated B moderately improved ([2]; 1st study, 8 weeks) | Improvement rating of symptoms, patients rated D not changed ([2]; 1st study, 8 weeks) | Improvement rating of symptoms, patients rated E aggravated ([2]; 1st study, 8 weeks) | Improvement rating of symptoms, patients rated B moderately improved ([2]; 1st study, 10 weeks) | Improvement rating of symptoms, patients rated C slightly improved ([2]; 1st study, 10 weeks) | Improvement rating of symptoms, patients rated D not changed ([2]; 1st study, 10 weeks) | Improvement rating of symptoms, patients rated E aggravated ([2]; 1st study, 10 weeks) | Improvement rating of symptoms, patients rated B moderately improved ([2]; 1st study, final) | Improvement rating of symptoms, patients rated D not changed ([2]; 1st study, final) | Improvement rating of symptoms, patients rated E aggravated ([2]; 1st study, final) | Improvement rating of symptoms, patients rated E aggravated ([2]; 2nd study, 1 week) | Improvement rating of symptoms, patients rated D not changed ([2]; 2nd study, 2 weeks) | Improvement rating of symptoms, patients rated E aggravated ([2]; 2nd study, 2 weeks) | Improvement rating of symptoms, patients rated D not changed ([2]; 2nd study, 4 weeks) | Improvement rating of symptoms, patients rated E aggravated ([2]; 2nd study, 4 weeks) | Improvement rating of symptoms, patients rated B moderately improved ([2]; 2nd study, 6 weeks) | Improvement rating of symptoms, patients rated D not changed ([2]; 2nd study, 6 weeks) | Improvement rating of symptoms, patients rated E aggravated ([2]; 2nd study, 6 weeks) | Improvement rating of symptoms, patients rated C slightly improved ([2]; 2nd study, 8 weeks) | Improvement rating of symptoms, patients rated D not changed ([2]; 2nd study, 8 weeks) | Improvement rating of symptoms, patients rated E aggravated ([2]; 2nd study, 8 weeks) | Improvement rating of symptoms, patients rated A markedly improved ([2]; 2nd study, 10 weeks) | Improvement rating of symptoms, patients rated C slightly improved ([2]; 2nd study, 10 weeks) | Improvement rating of symptoms, patients rated D not changed ([2]; 2nd study, 10 weeks) | Improvement rating of symptoms, patients rated E aggravated ([2]; 2nd study, 10 weeks) | Improvement rating of symptoms, patients rated A markedly improved ([2]; 2nd study, 12 weeks) | Improvement rating of symptoms, patients rated C slightly improved ([2]; 2nd study, 12 weeks) | Improvement rating of symptoms, patients rated D not changed ([2]; 2nd study, 12 weeks) | Improvement rating of symptoms, patients rated E aggravated ([2]; 2nd study, 12 weeks) | Improvement rating of symptoms, patients rated C slightly improved ([2]; 2nd study, final) | Improvement rating of symptoms, patients rated D not changed ([2]; 2nd study, final) | Improvement rating of symptoms, patients rated E aggravated ([2]; 2nd study, final)
23: Endoscopic improvement rating, patients rated A healed [1, 6] | Improvement rating of symptoms, patients rated A markedly improved ([2]; 1st study, 4 weeks)
19: Improvement rating of symptoms, patients rated A markedly improved ([2]; 2nd study, 1 week) | Improvement rating of symptoms, patients rated A markedly improved ([2]; 2nd study, final)
20: Endoscopic improvement rating, patients rated A healed [1, 3] | Improvement rating of symptoms, patients rated A markedly improved ([2]; 2nd study, 4 weeks)
21: Endoscopic improvement rating, patients rated A healed [1, 4] | Endoscopic improvement rating, patients rated A healed [1, 5] | Improvement rating of symptoms, patients rated A markedly improved ([2]; 1st study, 2 weeks) | Improvement rating of symptoms, patients rated A markedly improved ([2]; 1st study, final) | Improvement rating of symptoms, patients rated A markedly improved ([2]; 2nd study, 2 weeks)
16: Improvement rating of symptoms, patients rated A markedly improved ([2]; 1st study, 1 week)
2: Endoscopic improvement rating, patients rated B markedly decreased [1, 6] | Improvement rating of symptoms, patients rated A markedly improved ([2]; 1st study, 10 weeks) | Improvement rating of symptoms, patients rated B moderately improved ([2]; 2nd study, 1 week) | Improvement rating of symptoms, patients rated B moderately improved ([2]; 2nd study, final)
24: Endoscopic improvement rating, patients rated A healed [1, 7] | Endoscopic improvement rating, patients rated A healed [1, 8] | Endoscopic improvement rating, patients rated A healed [1, 9]
10: Improvement rating of symptoms, patients rated A markedly improved ([2]; 1st study, 6 weeks) | Improvement rating of symptoms, patients rated A markedly improved ([2]; 2nd study, 6 weeks) | Improvement rating of symptoms, patients rated A markedly improved ([2]; 2nd study, 8 weeks)
very effective: efficacy in the treatment of gastroesophageal reflux disease, overall ([1]; both studies, healing obtained with a 4 week treatment)
3: Improvement rating of symptoms, patients rated D not changed ([2]; 1st study, 1 week)
6: Improvement rating of symptoms, patients rated B moderately improved ([2]; 1st study, 1 week)
1: Endoscopic improvement rating, patients rated B markedly decreased [1, 3] | Endoscopic improvement rating, patients rated E not changed [1, 3] | Endoscopic improvement rating, patients rated E not changed [1, 4] | Endoscopic improvement rating, patients rated E not changed [1, 5] | Improvement rating of symptoms, patients rated B moderately improved ([2]; 1st study, 2 weeks) | Improvement rating of symptoms, patients rated D not changed ([2]; 1st study, 2 weeks) | Improvement rating of symptoms, patients rated C slightly improved ([2]; 1st study, 4 weeks) | Improvement rating of symptoms, patients rated C slightly improved ([2]; 1st study, 6 weeks) | Improvement rating of symptoms, patients rated C slightly improved ([2]; 1st study, 8 weeks) | Improvement rating of symptoms, patients rated C slightly improved ([2]; 1st study, final) | Improvement rating of symptoms, patients rated C slightly improved ([2]; 2nd study, 1 week) | Improvement rating of symptoms, patients rated D not changed ([2]; 2nd study, 1 week) | Improvement rating of symptoms, patients rated B moderately improved ([2]; 2nd study, 2 weeks) | Improvement rating of symptoms, patients rated C slightly improved ([2]; 2nd study, 2 weeks) | Improvement rating of symptoms, patients rated B moderately improved ([2]; 2nd study, 4 weeks) | Improvement rating of symptoms, patients rated C slightly improved ([2]; 2nd study, 4 weeks) | Improvement rating of symptoms, patients rated C slightly improved ([2]; 2nd study, 6 weeks) | Improvement rating of symptoms, patients rated B moderately improved ([2]; 2nd study, 8 weeks) | Improvement rating of symptoms, patients rated B moderately improved ([2]; 2nd study, 10 weeks) | Improvement rating of symptoms, patients rated B moderately improved ([2]; 2nd study, 12 weeks)
9: Improvement rating of symptoms, patients rated A markedly improved ([2]; 1st study, 8 weeks)
Only one patient was not healed: patients not healed after 8 weeks treatment ([1]; both studies, 10 mg tablet orally once a day)
